Test results published in patent US9174984B2, “Chemical compounds” (GlaxoSmithKline Intellectual Property (No. 2) Limited, priority 2011, dated 2015).
Read-outs that look alike come from different tables or passages of the source.

Molecular target: T1, Human DNMT3b/3L (Homo sapiens, UniProt Q9UBC3)
T1 construct: truncated 3b (catalytic domain)
Experiment: DNMT inhibition assay (3H-SAM filter-binding) against DNMT3b/3L
Format: biochemical
Settings: read-out: IC50 against DNMT 3b/3L
Procedure: DNMT Assays Used for Examples 1-114
Human DNMT3b/3L was coexpressed using truncated 3b (catalytic domain) and 3L (DNA binding domain) at GSK. Human full-length DNMT1 enzyme purchased from BPS Biosciences. Poly(dIdC) DNA (Sigma) was used at 0.002 mg/mL. Tritiated SAM (Perkin Elmer) was used at 500 nM. DNA, DNMT enzyme, and inhibitors were mixed with assay buffer (20 mM Tris pH8, 5% glycerol, 1 mM EDTA, 100 μg/mL BSA, 1 mM DTT, 50 mM NaCl) and pre-incubated without SAM for 30 min. H3 SAM was then added to initiate the methylation reaction which continues at 37° C. for 1 h. Reaction mixture was then transferred to a filter plate (Millipore Multiscreen HTS DE), then washed with 50 mM H2PO4 and 95% Ethanol. Scintillation counts were measured on the Perkin Elmer Microbeta scintillation counter.
DNMT Assays Used for Examples 115-120
DNMT enzymes were produced by GlaxoSmithKline. Human DNMT3b/3L was coexpressed using truncated 3b (catalytic domain) and 3L (DNA binding domain). DNMT1 was human, full-length protein. 3H-SAM was purchased from Perkin Elmer. Custon DNA oligonucleotide substrates were purchased from Integrated DNA technologies.
28-mer DNA Oligonucleotide Duplex (for DNMT3b/3L)
DNMT enzyme was preincubated with compound for 1 hr at RT, after which SAM and DNA were added to initiate the methylation reaction. The methylation reaction was quenched after 20 min upon the addition of >100 fold excess non-radioactive SAM. The quenched reaction mixture (80%) was transferred to a DEAE filter binding plate (Millipore Multiscreen HTS DE), washed with 3 volumes of 50 mM phosphate buffer and dried. Scintillation cocktail (MicroScint-20) was added to the plate and radioactivity (3H-DNA) was measured using a Perkin Elmer TopCount scintillation counter.
Final reagent concentrations (prior to quench) consisted of the following:
DNMT3b/3L (10 nM), 200 nM DNA, 200 nM 3H-SAM in 20 mM Tris (pH 8), 1 mM DTT, 1 mM EDTA, 25 mM NaCl, 1 mM CHAPS and 2% DMSO.

[1] = at least one experimental run or average of several runs, Examples 1-114 and 115-120 use different protocols

SMILES | IC50 [nM] | IC50 [1] [nM]
O=C(C#Cc1ccccc1)Nc1cccc(CNC(=O)NCc2ccnc3[nH]ccc23)c1 [Example 1, N-(3-((3-((1H-Pyrrolo[2,3-b]pyridin-4-yl)methyl)ureido)methyl)phenyl)-3-phenylpropiolamide] | ≤ 1000 | –
CC#CC(=O)Nc1cccc(CNC(=O)NCc2ccnc3[nH]ccc23)c1 [Example 3, N-(3-((3-((1H-Pyrrolo[2,3-b]pyridin-4-yl)methyl)ureido)methyl)phenyl)but-2-ynamide] | ≤ 1000 | –
NCc1cccc(NC(=S)NCc2ccnc3[nH]ccc23)c1 [Example 9, 1-((1H-Pyrrolo[2,3-b]pyridin-4-yl)methyl)-3-(3-(aminomethyl)phenyl)thiourea] | ≤ 20000 | –
COc1ccc(C#CC(=O)NCCNC(=S)NCc2ccnc3[nH]ccc23)cc1 [Example 11, N-(2-(3-((1H-Pyrrolo[2,3-b]pyridin-4-yl)methyl)thioureido)ethyl)-3-(4-methoxyphenyl)propiolamide] | ≤ 10000 | –
CC#CC(=O)Nc1cccc(CN/C(=N\C#N)NCc2ccnc3[nH]ccc23)c1 [Example 14, (E)-N-(3-((3-((1H-Pyrrolo[2,3-b]pyridin-4-yl)methyl)-2-cyanoguanidino)methyl)phenyl)but-2-ynamide] | – | ≤ 20000
N#C/N=C(\NCCNC(=O)C#Cc1ccccc1)NCc1ccnc2[nH]ccc12 [Example 15, (Z)—N-(2-(3-((1H-Pyrrolo[2,3-b]pyridin-4-yl)methyl)-2-cyanoguanidino)ethyl)-3-phenylpropiolamide] | ≤ 10000 | –
O=C(C#Cc1ccccc1)NCCCNC(=O)NCc1ccnc2[nH]ccc12 [Example 17, N-(3-(3-((1H-pyrrolo[2,3-b]pyridin-4-yl)methyl)ureido)propyl)-3-phenylpropiolamide] | ≤ 10000 | –
O=C(C#Cc1ccccc1)NCCCC(=O)NCc1ccnc2[nH]ccc12 [Example 18, N-((1H-pyrrolo[2,3-b]pyridin-4-yl)methyl)-4-(3-phenylpropiolamido)butanamide] | ≤ 1000 | –
O=C(C#Cc1ccccc1)Nc1cccc(CCC(=O)NCc2ccnc3[nH]ccc23)c1 [Example 19, N-(3-(3-(((1H-pyrrolo[2,3-b]pyridin-4-yl)methyl)amino)-3-oxopropyl)phenyl)-3-phenylpropiolamide] | ≤ 1000 | –
CN(CCNC(=O)NCc1ccnc2[nH]ccc12)C(=O)C#Cc1ccccc1 [Example 20, N-(2-(3-((1H-pyrrolo[2,3-b]pyridin-4-yl)methyl)ureido)ethyl)-N-methyl-3-phenylpropiolamide] | ≤ 10000 | –
O=C(C#Cc1ccccc1)NCc1ccccc1CNC(=O)NCc1ccnc2[nH]ccc12 [Example 21, N-(2-((3-((1H-pyrrolo[2,3-b]pyridin-4-yl)methyl)ureido)methyl)benzyl)-3-phenylpropiolamide] | ≤ 1000 | –
O=C(C#Cc1ccccc1)Nc1cccc(CNC(=N[N+](=O)[O-])NCc2ccnc3[nH]ccc23)c1 [Example 24, N-(3-((3-((1H-pyrrolo[2,3-b]pyridin-4-yl)methyl)-2-nitroguanidino)methyl)phenyl)-3-phenylpropiolamide] | – | ≤ 1000
C=CC(=O)Nc1ccc(C(F)(F)F)cc1CNC(=S)NCc1ccnc2[nH]ccc12 [Example 33, N-(2-((3-((1H-pyrrolo[2,3-b]pyridin-4-yl)methyl)thioureido)methyl)-4-(trifluoromethyl)phenyl)acrylamide] | – | ≤ 20000
O=C(CCBr)Nc1cccc(CNC(=S)NCc2ccnc3[nH]ccc23)c1 [Example 36, N-(3-((3-((1H-pyrrolo[2,3-b]pyridin-4-yl)methyl)thioureido)methyl)phenyl)-3-bromopropanamide] | – | ≤ 20000
C=CC(=O)Nc1ccccc1CNS(=O)(=O)NCc1ccnc2[nH]ccc12 [Example 39, N-(2-(((N-((1H-pyrrolo[2,3-b]pyridin-4-yl)methyl)sulfamoyl)amino)methyl)phenyl)acrylamide] | – | ≤ 10000
O=C(C#Cc1ccccc1)N1CCCC(CNS(=O)(=O)NCc2ccnc3[nH]ccc23)C1 (stereo not drawn) [Example 48, 1-((1H-pyrrolo[2,3-b]pyridin-4-yl)methyl)-3-((1-(3-phenylpropioloyl)piperidin-3-yl)methyl)sulfuric diamide] | ≤ 1000 | –
O=C(C#Cc1ccccc1)NCCCNS(=O)(=O)NCc1ccnc2[nH]ccc12 [Example 49, N-(3-((N-((1H-pyrrolo[2,3-b]pyridin-4-yl)methyl)sulfamoyl)amino)propyl)-3-phenylpropiolamide] | – | ≤ 1000

SMILES | IC50 [nM] | IC50 [1] [nM]
O=C(C#Cc1ccccc1)NCCNS(=O)(=O)NCc1ccnc2[nH]ccc12 [Example 50, N-(2-((N-((1H-pyrrolo[2,3-b]pyridin-4-yl)methyl)sulfamoyl)amino)ethyl)-3-phenylpropiolamide] | – | ≤ 10000
Nc1cccc(CNC(=O)NCc2ccnc3[nH]cc(Cl)c23)c1 [Example 52, 1-(3-aminobenzyl)-3-((3-chloro-1H-pyrrolo[2,3-b]pyridin-4-yl)methyl)urea] | – | 7100
O=C(C#Cc1ccccc1)Nc1cccc(CNC(=O)NCc2ccnc3[nH]cc(Cl)c23)c1 [Example 53, N-(3-((3-((3-chloro-1H-pyrrolo[2,3-b]pyridin-4-yl)methyl)ureido)methyl)phenyl)-3-phenylpropiolamide] | ≤ 1000 | –
O=C(C#Cc1ccccc1)NCc1ccccc1CNS(=O)(=O)NCc1ccnc2[nH]ccc12 [Example 55, N-(2-(((N-((1H-pyrrolo[2,3-b]pyridin-4-yl)methyl)sulfamoyl)amino)methyl)benzyl)-3-phenylpropiolamide] | ≤ 1000 | –
O=C(C#Cc1ccccc1)NCc1ccccc1CNC(=S)NCc1ccnc2[nH]ccc12 [Example 56, N-(2-((3-((1H-pyrrolo[2,3-b]pyridin-4-yl)methyl)thioureido)methyl)benzyl)-3-phenylpropiolamide] | ≤ 1000 | –
O=C(NCc1ccnc2[nH]ccc12)NC1CN(C(=O)C#Cc2ccccc2)C1 [Example 57, 1-((1H-pyrrolo[2,3-b]pyridin-4-yl)methyl)-3-(1-(3-phenylpropioloyl)azetidin-3-yl)urea] | ≤ 1000 | –
O=C(NCc1ccnc2[nH]ccc12)NC1CCN(C(=O)C#Cc2ccccc2)C1 (stereo not drawn) [Example 58, 1-((1H-pyrrolo[2,3-b]pyridin-4-yl)methyl)-3-(1-(3-phenylpropioloyl)pyrrolidin-3-yl)urea] | ≤ 1000 | –
O=C(C#Cc1ccccc1)Nc1cccc(CNC(=O)NCc2ccnc3[nH]cc(F)c23)c1 [Example 62, N-(3-((3-((3-fluoro-1H-pyrrolo[2,3-b]pyridin-4-yl)methyl)ureido)methyl)phenyl)-3-phenylpropiolamide] | ≤ 1000 | –
O=C(C#Cc1ccccc1)Nc1cccc(CNC(=O)NCc2ccnc3[nH]cc(Br)c23)c1 [Example 63, N-(3-((3-((3-bromo-1H-pyrrolo[2,3-b]pyridin-4-yl)methyl)ureido)methyl)phenyl)-3-phenylpropiolamide] | ≤ 1000 | –
O=C(NCc1ccnc2[nH]cc(Cl)c12)NC1CCN(C(=O)C#Cc2ccccc2)C1 (stereo not drawn) [Example 64, 1-((3-chloro-1H-pyrrolo[2,3-b]pyridin-4-yl)methyl)-3-(1-(3-phenylpropioloyl)pyrrolidin-3-yl)urea] | ≤ 10000 | –
C=CC(=O)Nc1ccc(F)c(CNC(=S)NCc2ccnc3[nH]ccc23)c1 [Example 74, N-(3-((3-((1H-pyrrolo[2,3-b]pyridin-4-yl)methyl)thioureido)methyl)-4-fluorophenyl)acrylamide] | – | ≤ 10000
C=CC(=O)Nc1cc(CNC(=S)NCc2ccnc3[nH]ccc23)ccc1Cl [Example 76, N-(5-((3-((1H-pyrrolo[2,3-b]pyridin-4-yl)methyl)thioureido)methyl)-2-chlorophenyl)acrylamide] | – | ≤ 1000
CC#CC(=O)Nc1cc(Cl)ccc1CNC(=S)NCc1ccnc2[nH]ccc12 [Example 82, N-(2-((3-((1H-pyrrolo[2,3-b]pyridin-4-yl)methyl)thioureido)methyl)-5-chlorophenyl)but-2-ynamide] | – | ≤ 1000
S=C(NCc1ccccc1-c1nccs1)NCc1ccnc2[nH]ccc12 [Example 111, 1-((1H-Pyrrolo[2,3-b]pyridin-4-yl)methyl)-3-(2-(thiazol-2-yl)benzyl)thiourea] | – | ≤ 10000
NCC(=O)Nc1cccc(CNC(=S)NCc2ccnc3[nH]ccc23)c1 [Example 112, N-(3-((3-((1H-Pyrrolo[2,3-b]pyridin-4-yl)methyl)thioureido)methyl)phenyl)-2-aminoacetamide] | – | ≤ 20000
S=C(NCc1ccccc1-c1cocn1)NCc1ccnc2[nH]ccc12 [Example 115, 1-((1H-pyrrolo[2,3-b]pyridin-4-yl)methyl)-3-(2-(oxazol-4-yl)benzyl)thiourea] | – | ≤ 1000
